Tested on: MCF-7 breast cancer cells
Test: MTT cell growth inhibition assay in MCF-7 breast cancer cells
Format: cell-based
Conditions: 72 hours post treatment, concentrations with respect to paclitaxel content
Method: The antiproliferative capabilities of PTX-AuNPs from Example 1 were first investigated in vitro. To this end, cellular assays were performed to compare the ability of the PTX-AuNPs to inhibit cell growth relative to the parent drug. Briefly, MCF-7 breast cancer cells were treated over a range of concentrations (based on equivalent PTX content) for all samples and relative cell survival was measured 72 hours post treatment following the MTT protocol. Additionally, the paclitaxel pyruvate compound was also analyzed, as it represented the agent released from the gold surface upon degradation of the hydrazone linker. MCF-7 cells were plated in 6 well plates and allowed to proliferate until approximately 80-90% confluent. Once optimal confluency was reached, increasing concentrations of PTX-AuNPs were added to each well in order to ensure sufficient uptake for imaging (up to 100 μg/mL). Following 12 hours of incubation with PTX-AuNPs, the cells were fixed with a solution of gluteraldehyde and imaged by transmission electron microscopy (TEM). MCF-7 breast cancer cells were plated in 96-well plates at a concentration of 4,000 cells/well (100 μL/well) and allowed to attach for 24 hours. […] Upon agitating the plates for 2 minutes, absorbance values were recorded using a plate reader (Gene Mate, BioTek) equipped with a 570 nm filter.

IC50 (MCF-7 cells)	IC50 (Homo sapiens, MCF7, MCF-7 cells)	Structure (SMILES)
9 nM	–	CC(=O)OC1C(=O)C2(C)C(O)CC3OCC3(OC(C)=O)C2C(OC(=O)c2ccccc2)C2(O)CC(OC(=O)C(OC(=O)C(C)=O)C(NC(=O)c3ccccc3)c3ccccc3)C(C)=C1C2(C)C (centres unmarked) [paclitaxel pyruvate, Paclitaxel 2′ Pyruvate]
–	~4 nM	CC(=O)O[C@H]1C(=O)[C@@]2(C)[C@H]([C@H](OC(=O)c3ccccc3)[C@]3(O)C[C@H](OC(=O)[C@H](O)[C@@H](NC(=O)c4ccccc4)c4ccccc4)C(C)=C1C3(C)C)[C@]1(OC(C)=O)CO[C@@H]1C[C@@H]2O [paclitaxel]
